According to the CheMixHub viscosity set:

Assay: xn = mol fraction of the nth substance listed

COCCOC + O
Conditions	viscosity [mPa·s]
298 K, 101 kPa, x2 = 0.222	0.5134
298 K, 101 kPa, x2 = 0.353	0.6057
298 K, 101 kPa, x2 = 0.3777	0.6324
298 K, 101 kPa, x2 = 0.4685	0.7626
298 K, 101 kPa, x2 = 0.5569	0.943
298 K, 101 kPa, x2 = 0.711	1.481
298 K, 101.3 kPa, x1 = 0.019	1.166
298 K, 101.3 kPa, x1 = 0.0608	1.748
298 K, 101.3 kPa, x1 = 0.1011	2.092
298 K, 101.3 kPa, x1 = 0.1521	2.104
298 K, 101.3 kPa, x1 = 0.1999	1.935
298 K, 101.3 kPa, x1 = 0.2992	1.432
298 K, 101.3 kPa, x1 = 0.4048	1.074
298 K, 101.3 kPa, x1 = 0.597	0.684
298 K, 101.3 kPa, x1 = 0.801	0.506
298.15 K, 101.33 kPa, x1 = 0.007	1.018
298.15 K, 101.33 kPa, x1 = 0.0184	1.189
298.15 K, 101.33 kPa, x1 = 0.0306	1.376
298.15 K, 101.33 kPa, x1 = 0.0542	1.712
298.15 K, 101.33 kPa, x1 = 0.0775	1.968
298.15 K, 101.33 kPa, x1 = 0.1063	2.146
298.15 K, 101.33 kPa, x1 = 0.1301	2.252
298.15 K, 101.33 kPa, x1 = 0.1654	2.164
298.15 K, 101.33 kPa, x1 = 0.2002	2.001
298.15 K, 101.33 kPa, x1 = 0.2402	1.782
298.15 K, 101.33 kPa, x1 = 0.2886	1.55
298.15 K, 101.33 kPa, x1 = 0.3482	1.256
298.15 K, 101.33 kPa, x1 = 0.3836	1.128
298.15 K, 101.33 kPa, x1 = 0.4226	1.005
298.15 K, 101.33 kPa, x1 = 0.4689	0.886
298.15 K, 101.33 kPa, x1 = 0.5203	0.78
298.15 K, 101.33 kPa, x1 = 0.5617	0.707
298.15 K, 101.33 kPa, x1 = 0.613	0.638
298.15 K, 101.33 kPa, x1 = 0.6418	0.605
298.15 K, 101.33 kPa, x1 = 0.6575	0.586
298.15 K, 101.33 kPa, x1 = 0.7264	0.536
298.15 K, 101.33 kPa, x1 = 0.8227	0.491
298.15 K, 101.33 kPa, x1 = 0.8646	0.471
298.15 K, 101.33 kPa, x1 = 0.9633	0.433
303.15 K, 101 kPa, x1 = 0.0471	1.344
303.15 K, 101 kPa, x1 = 0.0951	1.725
303.15 K, 101 kPa, x1 = 0.1421	1.837
303.15 K, 101 kPa, x1 = 0.1877	1.726
303.15 K, 101 kPa, x1 = 0.2322	1.562
303.15 K, 101 kPa, x1 = 0.277	1.373
303.15 K, 101 kPa, x1 = 0.3598	1.093
303.15 K, 101 kPa, x1 = 0.4455	0.8759
303.15 K, 101 kPa, x1 = 0.5389	0.7129
303.15 K, 101 kPa, x1 = 0.6952	0.5462
303.15 K, 101 kPa, x1 = 0.803	0.4759
303.15 K, 101 kPa, x1 = 0.9001	0.4317
308.15 K, 101 kPa, x1 = 0.0471	1.174
308.15 K, 101 kPa, x1 = 0.0951	1.487
308.15 K, 101 kPa, x1 = 0.1421	1.583
308.15 K, 101 kPa, x1 = 0.1877	1.493
308.15 K, 101 kPa, x1 = 0.2322	1.375
308.15 K, 101 kPa, x1 = 0.277	1.214
308.15 K, 101 kPa, x1 = 0.3598	0.98
308.15 K, 101 kPa, x1 = 0.4455	0.7944
308.15 K, 101 kPa, x1 = 0.5389	0.6553
308.15 K, 101 kPa, x1 = 0.6952	0.5103
308.15 K, 101 kPa, x1 = 0.803	0.448
308.15 K, 101 kPa, x1 = 0.9001	0.4079
313.15 K, 101 kPa, x1 = 0.0471	1.035
313.15 K, 101 kPa, x1 = 0.0951	1.302
313.15 K, 101 kPa, x1 = 0.1421	1.377
313.15 K, 101 kPa, x1 = 0.1877	1.308
313.15 K, 101 kPa, x1 = 0.2322	1.211
313.15 K, 101 kPa, x1 = 0.277	1.081
313.15 K, 101 kPa, x1 = 0.3598	0.886
313.15 K, 101 kPa, x1 = 0.4455	0.7267
313.15 K, 101 kPa, x1 = 0.5389	0.6061
313.15 K, 101 kPa, x1 = 0.6952	0.4784
313.15 K, 101 kPa, x1 = 0.803	0.4217
313.15 K, 101 kPa, x1 = 0.9001	0.3865
318.15 K, 101 kPa, x1 = 0.0471	0.9228
318.15 K, 101 kPa, x1 = 0.0951	1.143
318.15 K, 101 kPa, x1 = 0.1421	1.208
318.15 K, 101 kPa, x1 = 0.1877	1.157
318.15 K, 101 kPa, x1 = 0.2322	1.07
318.15 K, 101 kPa, x1 = 0.277	0.9692
318.15 K, 101 kPa, x1 = 0.3598	0.8048
318.15 K, 101 kPa, x1 = 0.4455	0.6672
318.15 K, 101 kPa, x1 = 0.5389	0.5616
318.15 K, 101 kPa, x1 = 0.6952	0.4497
318.15 K, 101 kPa, x1 = 0.803	0.3986
318.15 K, 101 kPa, x1 = 0.9001	0.367
323.15 K, 101 kPa, x1 = 0.0471	0.8291
323.15 K, 101 kPa, x1 = 0.0951	1.013
323.15 K, 101 kPa, x1 = 0.1421	1.07
323.15 K, 101 kPa, x1 = 0.1877	1.034
323.15 K, 101 kPa, x1 = 0.2322	0.9565
323.15 K, 101 kPa, x1 = 0.277	0.8719
323.15 K, 101 kPa, x1 = 0.3598	0.7336
323.15 K, 101 kPa, x1 = 0.4455	0.6155
323.15 K, 101 kPa, x1 = 0.5389	0.5232
323.15 K, 101 kPa, x1 = 0.6952	0.4226
323.15 K, 101 kPa, x1 = 0.803	0.3769
323.15 K, 101 kPa, x1 = 0.9001	0.3479
